Measured values: the NIST ThermoML archive (doi:10.1016/j.jct.2016.07.035)
± gives the expanded uncertainty stated by the source.

Settings: Crystal; visual observation

Normal melting temperature: 173.50 ± 2.1 °C
SMILES: COC(=O)C1=C(C)NC(C)=C(C(=O)OC)C1c1ccccc1[N+](=O)[O-]
